Test results: US7566712B2, “Biaryl piperazinyl-pyridine analogues” (Neurogen Corporation, priority 2003, dated 2009)

Biological target: T1, human capsaicin receptor (Homo sapiens, UniProt Q8NER1)
T1 construct: pBK-CMV expression construct encoding the full length human capsaicin receptor; expressed in transfected cells
Assay: Calcium mobilization assay, determination of antagonist activity (Example 6)
Format: cell-based
Details: Table II; IC50 determined as described in Example 6
Summary of the method: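 HEK293 clonal lines stably expressing full-length human capsaicin receptor, loaded with Fluo-3 AM in KRH buffer pH 7.4, 1–2 h at 37 °C. Compounds (1–5 μM final) preincubated 0.5–6 h at room temperature, then capsaicin at its EC50 added. FLIPR/Fluoroskan calcium signal; IC50 as 50% decrease of capsaicin response.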

T1 sequence (Q8NER1 whole entry): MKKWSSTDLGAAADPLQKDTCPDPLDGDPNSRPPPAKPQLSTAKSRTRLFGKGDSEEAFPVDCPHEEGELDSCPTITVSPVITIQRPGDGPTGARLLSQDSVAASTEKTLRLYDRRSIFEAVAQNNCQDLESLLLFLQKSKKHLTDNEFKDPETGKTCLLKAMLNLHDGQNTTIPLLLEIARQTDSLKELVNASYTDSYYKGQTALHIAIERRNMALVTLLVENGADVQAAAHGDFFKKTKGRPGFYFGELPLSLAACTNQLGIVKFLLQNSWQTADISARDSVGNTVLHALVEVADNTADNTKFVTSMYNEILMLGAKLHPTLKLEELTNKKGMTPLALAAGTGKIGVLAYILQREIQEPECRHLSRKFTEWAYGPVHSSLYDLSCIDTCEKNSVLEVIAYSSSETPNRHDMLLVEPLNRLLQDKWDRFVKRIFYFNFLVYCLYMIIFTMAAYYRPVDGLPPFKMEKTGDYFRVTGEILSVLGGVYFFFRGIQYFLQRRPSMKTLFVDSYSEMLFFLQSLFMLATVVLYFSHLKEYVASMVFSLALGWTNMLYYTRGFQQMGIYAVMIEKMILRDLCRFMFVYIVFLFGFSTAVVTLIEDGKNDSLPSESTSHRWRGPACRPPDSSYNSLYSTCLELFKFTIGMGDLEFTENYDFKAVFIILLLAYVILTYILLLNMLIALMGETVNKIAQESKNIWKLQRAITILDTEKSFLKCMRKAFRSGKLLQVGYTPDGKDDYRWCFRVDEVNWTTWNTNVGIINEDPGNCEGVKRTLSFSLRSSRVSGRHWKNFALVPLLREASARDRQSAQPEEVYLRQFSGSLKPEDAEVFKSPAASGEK

SMILES	IC50 [nM]
NC1CCN(c2nc(-c3ccc(F)c(Cl)c3)cc(N3CCN(c4ncccc4C(F)(F)F)CC3)n2)C1 (stereo not drawn) [Example 568, 1-(4-(3-chloro-4-fluorophenyl)-6-{4-[3-(trifluoromethyl)pyridin-2-yl]piperazin-1-yl}pyrimidin-2-yl)pyrrolidin-3-amine]	≤ 1000
CC(C)c1cccc(-c2cc(N3CCN(c4ncccc4C(F)(F)F)C[C@H]3C)nc(N3CCOCC3)n2)c1 [Example 501, 4-(4-(3-isopropylphenyl)-6-{(2R)-2-methyl-4-[3-(trifluoromethyl)pyridin-2-yl]piperazin-1-yl}pyrimidin-2-yl)morpholine]	≤ 1000
CC(C)c1cccc(-c2cc(N3CCN(c4ncccc4Cl)C[C@H]3C)nc(N3CCOCC3)n2)c1 [Example 502, 4-[4-[(2R)-4-(3-chloropyridin-2-yl)-2-methylpiperazin-1-yl]-6-(3-isopropylphenyl)pyrimidin-2-yl]morpholine]	≤ 1000
CC(C)c1ccc(-c2cc(N3CCN(c4ncccc4Cl)C[C@H]3C)nc(N3CCOCC3)n2)cc1 [Example 505, 4-[4-[(2R)-4-(3-chloropyridin-2-yl)-2-methylpiperazin-1-yl]-6-(4-isopropylphenyl)pyrimidin-2-yl]morpholine]	≤ 1000
Fc1ccc(F)c(-c2nc(N3CCOCC3)nc(N3CCN(c4ccccn4)CC3)n2)c1 [Example 422, 2-(2,5-difluorophenyl)-4-morpholin-4-yl-6-(4-pyridin-2-ylpiperazin-1-yl)-1,3,5-triazine]	≤ 1000
CCc1cccc(-c2cc(N3CCN(c4ncccc4C#N)C[C@H]3C)nc(N3CCOCC3)n2)c1 [Example 514, 2-{(3R)-4-[6-(3-ethylphenyl)-2-morpholin-4-ylpyrimidin-4-yl]-3-methylpiperazin-1-yl}nicotinonitrile]	≤ 1000

Same assay, conditions: Table II; IC50 determined as described in Example 6 (antagonist activity, calcium mobilization)

SMILES	IC50 [nM]
C[C@@H]1CN(c2ncccc2C(F)(F)F)CCN1c1cc(-c2ccc(F)c(F)c2)nc(N2CCC[C@@H]2C)n1 [Example 995, 4-(3,4-difluorophenyl)-2-[(2S)-2-methylpyrrolidin-1-yl]-6-{(2R)-2-methyl-4-[3-(trifluoromethyl)pyridin-2-yl]piperazin-1-yl}pyrimidine]	≤ 1000
CC1CCCN1c1nc(-c2ccc(F)cc2)cc(N2CCN(c3ncncc3Cl)C[C@H]2C)n1 (stereo partly drawn) [Example 1013, 4-[(2R)-4-(5-chloropyrimidin-4-yl)-2-methylpiperazin-1-yl]-6-(4-fluorophenyl)-2-(2-methylpyrrolidin-1-yl)pyrimidine]	≤ 1000

Same assay, conditions: Table II; determined as described in Example 6 (antagonist activity); "*" = 1 micromolar or less

SMILES	IC50 [nM]
C[C@@H]1CN(c2ncccc2C(F)(F)F)CCN1c1cc(-c2ccc(F)cc2)nc(N2CCCCC2)n1 [Example 784, 4-(4-fluorophenyl)-6-{(2R)-2-methyl-4-[3-(trifluoromethyl)pyridin-2-yl]piperazin-1-yl}-2-piperidin-1-ylpyrimidine]	≤ 1000
CC1CCCN1c1nc(-c2ccc(F)cc2)cc(N2CCN(c3ncccc3C(F)(F)F)C[C@H]2C)n1 (stereo partly drawn) [Example 783, 4-(4-fluorophenyl)-2-(2-methylpyrrolidin-1-yl)-6-{(2R)-2-methyl-4-[3-(trifluoromethyl)pyridin-2-yl]piperazin-1-yl}pyrimidine]	≤ 1000
CC1CN(c2nccnc2Cl)CCN1c1nc(-c2ccc(F)c(Cl)c2)cc(N2CCC[C@H]2C)n1 (stereo in doubt) [Example 943, 4-(3-chloro-4-fluorophenyl)-2-[(2R)-4-(3-chloropyrazin-2-yl)-2-methylpiperazin-1-yl]-6-[(2R)-2-methylpyrrolidin-1-yl]pyrimidine]	≤ 1000
CC1CCN1c1nc(-c2ccc(F)c(Cl)c2)cc(N2CCN(c3ncccc3Cl)C[C@H]2C)n1 (stereo partly drawn) [Example 780, 4-(3-ohloro-4-fluorophenyi)-6-[(2R)-4-(3-chloropyridin-2-yl)-2-methylpiperazin-1-yl]-2-(2-methylazetidin-1-yl)pyrimidine]	≤ 1000
CCCN1CCN(c2nc(-c3cncc(Cl)c3)cc(N3CCN(c4ncccc4Cl)C[C@H]3C)n2)CC1 [Example 838, 4-(5-chloropyridin-3-yl)-6-[(2R)-4-(3-chloropyridin-2-yl)-2-methylpiperazin-1-yl]-2-(4-propylpiperazin-1-yl)pyrimidine]	≤ 1000
C[C@@H]1CCCN1c1cc(-c2ccc(F)c(F)c2)nc(N2CCN(c3nccnc3Cl)C[C@@H]2C)n1 [Example 950, 2-[(2S)-4-(3-chloropyrazin-2-yl)-2-methylpiperazin-1-yl]-4-(3,4-difluorophenyl)-6-[(2R)-2-methylpyrrolidin-1-yl]pyrimidine]	≤ 1000
Cc1cc(O)cnc1N1CCN(c2cc(-c3ccc(F)c(Cl)c3)nc(N3CCCC3C)n2)CC1 (stereo not drawn) [Example 815, 6-{4-[6-(3-chloro-4-fluorophenyl)-2-(2-methylpyrrolidin-1-yl)pyrimidin-4-yl]piperazin-1-yl}-5-methylpyridin-3-ol]	≤ 1000
Cc1ccc(C)n1-c1nc(-c2ccc(C#N)cc2)cc(N2CCN(c3ncccc3Cl)C[C@H]2C)n1 [Example 874, 4-[6-[(2R)-4-(3-chloropyridin-2-yl)-2-methypiperazin-1-yl]-2-(2,5-dimethyl-1H-pyrrol-1-yl)pyrimidin-4-yl]benzonitrile]	≤ 1000
Cc1cc(-c2cc(N3CCN(c4ncccc4Cl)C[C@@H]3C)nc(N3CCOCC3)n2)ccc1F [Example 904, 4-[4-[(2S)-4-(3-chloropyridin-2-yl)-2-methylpiperazin-1-yl]-6-(4-fluoro-3-methylphenyl)pyrimidin-2-yl]morpholine]	≤ 1000
Cc1cc(-c2cc(Cl)nc(N3CCN(c4ncccc4Cl)C[C@@H]3C)n2)ccc1F (stereo in doubt) [Example 899, 4-chloro-2-[4-(3-chloropyridin-2-yl)-2-methylpiperazin-1-yl]-6-(4-fluoro-3-methylphenyl)pyrimidine]	≤ 1000

Same assay, conditions: Table II; determined as described in Example 6; class symbol

SMILES	IC50 [nM]
Cc1cccc(-c2nc(N3CCOCC3)nc(N3CCN(c4ncccc4C(F)(F)F)CC3)n2)c1 [Example 238, 2-(3-methylphenyl)-4-morpholin-4-yl-6-{4-[3-(trifluoromethyl)pyridin-2-yl]piperazin-1-yl}-1,3,5-triazine]	≤ 1000

Same assay, conditions: determined as described in Example 6 (calcium mobilization, antagonist activity); Table II

SMILES	IC50 [nM]
COC[C@@H]1CCCN1c1nc(-c2ccc(F)c(C)c2)cc(N2CCN(c3ncccc3Cl)C[C@H]2C)n1 [Example 729, 4-[(2R)-4-(3-chloropyridin-2-yl)-2-methylpiperazin-1-yl]-6-(4-fluoro-3-methylphenyl)-2-[(2S)-2-(methoxymethyl)pyrrolidin-1-yl]pyrimidine]	≤ 1000
CCc1nc(C)cn1-c1nc(-c2cccc(Cl)c2)cc(N2CCN(c3ncccc3C(F)(F)F)CC2)n1 [Example 647, 4-(3-chlorophenyl)-2-(2-ethyl-4-methyl-1H-imidazol-1-yl)-6-(4-[3-(trifluoromethyl)pyridin-2-yl]piperazin-1-yl}pyrimidine]	≤ 1000
Cc1cccnc1N1CCN(c2cc(-c3ccc(F)c(Cl)c3)nc(N3CCCC3C)n2)CC1 (stereo not drawn) [Example 695, 4-(3-chloro-4-fluorophenyl)-6-[4-(3-methylpyridin-2-yl)piperazin-1-yl]-2-(2-methylpyrrolidin-1-yl)pyrimidine]	≤ 1000
CC1CCCN1c1nc(-c2ccc(F)c(Cl)c2)cc(N2CCN(c3ncccc3Cl)CC2)n1 (stereo not drawn) [Example 714, 4-(3-chloro-4-fluorophenyl)-6-[4-(3-chloropyridin-2-yl)piperazin-1-yl]2-(2-methylpyrrolidin-1-yl)pyrimidine]	≤ 1000
CCN(CC)c1nc(-c2ccc(C)nc2)cc(N2CCN(c3ncccc3C(F)(F)F)CC2)n1 [Example 607, N,N-diethyl-4-(6-methylpyridin-3-yl)-6-{4-[3-(trifluoromethyl)pyridin-2-yl]piperazin-1-yl}pyrimidin-2-amine]	≤ 1000
CC(=O)N(C)c1nc(-c2ccc(F)c(Cl)c2)cc(N2CCN(c3ncccc3C(F)(F)F)CC2)n1 [Example 679, N-(4-(3-chloro-4-fluorophenyl)-6-{4-[3-(trifluoromethyl)pyridin-2-yl]piperazin-1-yl}pyrimidin-2-yl)-N-methylacetamide]	≤ 1000
COC[C@H]1CCCN1c1nc(-c2ccc(F)c(C)c2)cc(N2CCN(c3ncccc3Cl)C[C@H]2C)n1 [Example 728, 4-[(2R)-4-(3-chloropyridin-2-yl)-2-methylpiperazin-1-yl]-6-(4-fluoro-3-methylphenyl)-2-[(2R)-2-(methoxymethyl)pyrrolidin-1-yl]pyrimidine]	≤ 1000
CC1CCCN1c1nc(-c2ccc(F)c(Cl)c2)cc(N2CCN(c3ncccc3C(F)(F)F)CC2)n1 (stereo not drawn) [Example 609, 4-(3-chloro-4-fluorophenyl)-2-(2-methylpyrrolidin-1-yl)-6-{4-[3-(trifluoromethyl)pyridin-2-yl]piperazin-1-yl}pyrimidine]	≤ 1000
C[C@@H]1CN(c2ncccc2Cl)CCN1c1cc(-c2ccc(F)c(F)c2)nc(N2CCCCC2)n1 [Example 769, 4-{(2R)-4-(3-chloropyridin-2-yl)-2-methylpiperazin-1-yl]-6-(3,4-difluorophenyl)-2-piperidin-1-ylpyrimidine]	≤ 1000
FC(F)(F)c1cccnc1N1CCN(c2cc(-c3ccc(N4CCCC4)c(Cl)c3)nc(N3CCCC3)n2)CC1 [Example 608, 4-(3-chloro-4-pyrrolidin-1-ylphenyl)-2-pyrrolidin-1-yl-6-{4-[3-(trifluoromethyl)pyridin-2-yl]piperazin-1-yl}pyrimidine]	≤ 1000
C[C@@H]1CN(c2nc(-c3ccc(F)c(Cl)c3)cc(N3CCN(c4ncccc4C(F)(F)F)CC3)n2)[C@@H](C)CN1 [Example 627, 4-(3-chloro-4-fluorophenyl)-2-[(2S,5R)-2,5-dimethylpiperazin-1-yl]-6-{4-[3-(trifluoromethyl)pyridin-2-yl]piperazin-1-yl}pyrimidine]	≤ 1000
